Measurements reported in US11608318B2, “Solid state forms of Omecamtiv mecarbil and Omecamtiv mecarbil diHCl” (ASSIA CHEMICAL INDUSTRIES LTD., priority 2018, dated 2023).

Description: (§1) Pharmaceutical molecules may display solid to solid phase transformations and transformations between polymorphs; which may detected by exposure of the solid state form to stress conditions of e.g., high temperature and high relative humidity.
as §1

Malonic Omecamtiv mecarbil diHCl [form OCM-3]
thermodynamic and mechanical stability of the solid state form (polymorphic conversion): thermodynamically and mechanically stable
